Measurements published in patent US6541463B1, “Inhibitors of type 5 and type 3 17β-hydroxysteroid dehydrogenase and methods for their use” (Endorecherche, Inc., priority 1998, dated 2003).

Experiments:
androgen receptor = biological target: T1, androgen receptor (Rattus norvegicus, UniProt P15207); assay: Androgen receptor (AR) assay: inhibition of [3H]R1881 binding, prostate cytosol
T1 construct: from tissue; host or cells: ventral prostate cytosol of gonadectomized male Sprague-Dawley rats
T1 sequence (P15207 1-902): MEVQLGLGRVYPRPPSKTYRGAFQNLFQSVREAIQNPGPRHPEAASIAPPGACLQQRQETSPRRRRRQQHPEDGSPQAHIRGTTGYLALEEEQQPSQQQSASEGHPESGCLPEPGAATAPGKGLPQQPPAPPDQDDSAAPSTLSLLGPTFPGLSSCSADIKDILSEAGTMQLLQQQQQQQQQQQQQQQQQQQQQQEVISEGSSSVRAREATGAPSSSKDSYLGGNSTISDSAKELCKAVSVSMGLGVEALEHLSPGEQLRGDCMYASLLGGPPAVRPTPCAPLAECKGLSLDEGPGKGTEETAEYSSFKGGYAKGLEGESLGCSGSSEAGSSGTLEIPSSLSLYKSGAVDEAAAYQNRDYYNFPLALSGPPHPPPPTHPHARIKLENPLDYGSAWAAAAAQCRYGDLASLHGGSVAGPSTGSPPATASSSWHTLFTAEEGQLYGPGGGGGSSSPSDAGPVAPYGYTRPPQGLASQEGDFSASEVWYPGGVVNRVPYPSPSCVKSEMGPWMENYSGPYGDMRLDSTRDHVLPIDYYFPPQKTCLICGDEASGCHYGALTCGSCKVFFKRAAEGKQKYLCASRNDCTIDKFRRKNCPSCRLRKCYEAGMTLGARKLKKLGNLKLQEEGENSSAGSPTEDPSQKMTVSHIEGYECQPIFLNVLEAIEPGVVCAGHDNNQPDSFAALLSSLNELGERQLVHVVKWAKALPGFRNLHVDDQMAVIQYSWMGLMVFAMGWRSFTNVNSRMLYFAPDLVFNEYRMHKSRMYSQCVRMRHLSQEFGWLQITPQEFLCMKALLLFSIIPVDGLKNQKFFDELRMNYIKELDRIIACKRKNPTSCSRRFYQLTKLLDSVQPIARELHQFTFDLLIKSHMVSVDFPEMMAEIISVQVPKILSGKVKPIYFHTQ
Description: The manner in which the percentage of inhibition is determined is described in “Other Tests; D-Androgen Receptor (AR) Assays”. Lower numbers are desirable.
(§1) Male Sprague-Dawley rats (Crl: CD(SD)Br) weighing 200-300 g were obtained from Charles-River Inc. (St-Constant, Québec, Canada). The rats were gonadectomized under general anesthesia (Isoflurane) and killed by cervical dislocation 24 hours later. The ventral prostates were rapidly removed, dissected free from adhering tissue and frozen on dry-ice. Prostates were kept at −80° C. until assay.
All subsequent steps were performed at 0-4° C. Prostates were homogenized in 5 vol (wt/vol) of buffer A (25 mM Tris-HCl, 1.5 mM EDTA disodium salt, 10 mM α-monothioglycerol, 10% glycerol, and 10 mM sodium molybdate, pH 7.4), using a Polytron PT-10 homogenizer (Brinkman Instruments, Canada) at a setting of 5 for three periods of 10 sec, with intervals of 10 sec for cooling. The homogenate was then centrifuged at 105,000×g for 60 min in a Beckman L5-65 ultracentrifuge (Fullerton, Calif.).
Androgen binding was measured using the hydroxylapatite assay (HAP). In brief, the radioactive steroid [^3H]R1881 solubilized in ethanol was diluted into buffer A. Aliquots of prostate cytosol preparation (0.1 ml) were then incubated with 8 nM [^3H]R1881 (0.1 ml, ˜200,000 cpm) in the presence or absence of the indicated concentrations of unlabeled compounds (0.1 ml, prepared in buffer A containing 10% ethanol) for 16-18 h at 0-4° C. […] Unbound steroids were separated by incubation for 40 min at 0-4° C. with 0.3 ml HAP prepared in buffer P (50 mM, Tris-HCl, 10 mM KH2PO4, pH 7.4) as follows: 10 g HAP were washed with buffer P until the supernatant reached a pH of 7.4 and then following centrifugation and decantation of the supernatant, 37.5 ml of buffer P were added. After incubation with HAP and 10 minutes of centrifugation at 1,000×g, the pellet was washed 3 times with 1 ml buffer P. Thereafter, the radioactivity was extracted from the pellet by incubation at room temperature for 60 minutes with 1 ml EtOH. After centrifugation, the supernatant was decanted into a scintillation vial and the pellet was extracted again with ethanol.

progesterone receptor = assay: Progesterone receptor assay: inhibition of [3H]R5020 binding, uterine cytosol; design: species or system rat
Description: The manner in which the percentage of inhibition is determined is described in “Other Tests; E-Progesterone Receptor Assay”. Lower numbers are desirable.
[17α-methyl-^3H]-promegestone (R5020) (84 Ci/mmol) and the corresponding unlabeled compound were purchased from New England Nuclear (Lachine, Québec, Canada). All other chemicals were of analytical grade.
Stock solutions of the unlabeled steroids were kept at 4° C. in ethanol. The desired steroid solutions were then prepared by appropriate dilution in buffer B (10 mM Tris-HCl, 1.5 mM EDTA, 10 mM α-monothioglycerol, pH 7.4) containing 30% ethanol.
as §1, with “Female” for “Male”, “rats” for “rats (Crl: CD(SD)Br)”, “uteri are” for “ventral prostates were”, “Tissues” for “Prostates”, “use.” for “assay.”
All procedures were performed at 4° C. Tissues were pulverized frozen in dry ice with a Thermovac pulverizer. The samples were then homogenized in 10 vol (w/v) of buffer A (25 mM Tris-HCl, 1.5 mM EDTA, 10 mM α-monothioglycerol, 10% glycerol, 10 mM sodium molybdate, pH 7.4) using a Polytron PT-10 homogenizer (Brinkmann Instruments, Canada) at a setting of 5 for two periods of 10 sec, with intervals of 10 sec for cooling. The homogenate was then centrifuged at 105,000×g for 90 min. The supernatant was used immediately for assay.
Progesterone binding was measured using the dextran-coated charcoal adsorption technique. […] Each concentration was done in triplicate. Assay was ended with 300 μl of DCC (1% Norit A and 0.1% Dextran T-70 in Buffer B). After 10 min of incubation, tubes were centrifuged at 2,000×g for 10 min. and decanted in vials with 6 ml of BCS liquid scintillation (New England Nuclear, Dupont). The radioactivity was measured in a Beckman counter at a counting efficiency of 35%.

Row | Compound | inhibition at 1 µM (androgen receptor; Table 4′, E^−6) [%] | inhibition at 0.01 µM (androgen receptor; Table 4′, E^−8) [%] | % Inhibition Progesterone Receptor E^−6 (progesterone receptor; Table 4′, E^−6) [%] | % Inhibition Progesterone Receptor E^−8 (progesterone receptor; Table 4′, E^−8) [%] | also measured
1 | CCCCN(C)C(=O)[C@@]1(OC(C)=O)CCC2C3C=C(C)C4=CC(=O)CC[C@]4(C)C3CC[C@@]21C (some centres unmarked) [EM-1165] |  |  |  |  | % Inhibition Androgen Receptor (androgen receptor; E^−6): 1%; % Inhibition Androgen Receptor (androgen receptor; E^−8): 0%; % Inhibition Progesterone Receptor (progesterone receptor; E^−6): 7%; % Inhibition Progesterone Receptor (progesterone receptor; E^−8): 0%
2 | CC12CCC3c4ccc(F)cc4CCC3C1CCC21CCCC(=O)O1 (centres unmarked) [EM-1170-CS] | 1 | 0 | 24 | 1 | 
3 | CCC[C@]1(F)CC2C3C=CC4=CC(=O)CC[C@]4(C)C3CC[C@]2(C)C1=O (some centres unmarked) [EM-1183] |  |  |  |  | inhibition at 1 µM (androgen receptor; E^−6): 1%; inhibition at 0.01 µM (androgen receptor; E^−8): 0%; % Inhibition Progesterone Receptor E^−6 (progesterone receptor; E^−6): 45%; % Inhibition Progesterone Receptor E^−8 (progesterone receptor; E^−8): 9%
4 | CC(=O)[C@@]1(OC(=O)CCCCF)CCC2C3C=C(C)C4=CC(=O)CC[C@]4(C)C3CC[C@@]21C (some centres unmarked) [EM-1195-CS] |  |  |  |  | % Inhibition Androgen Receptor (androgen receptor; E^−6): 62%; % Inhibition Androgen Receptor (androgen receptor; E^−8): 1%; % Inhibition Progesterone Receptor (progesterone receptor; E^−6): 70%; % Inhibition Progesterone Receptor (progesterone receptor; E^−8): 0%
5 | CC(C)C[C@@H]1CC2C3C=CC4=CC(=O)CC[C@]4(C)C3CC[C@]2(C)C1=O (some centres unmarked) [EM-1273-CS] |  |  |  |  | inhibition at 1 µM (androgen receptor; E^−6): 0%; inhibition at 0.01 µM (androgen receptor; E^−8): 0%; % Inhibition Progesterone Receptor E^−6 (progesterone receptor; E^−6): 0%; % Inhibition Progesterone Receptor E^−8 (progesterone receptor; E^−8): 0%
6 | COc1ccc(CC(=O)O[C@]2(C(C)=O)CCC3C4C=C(C)C5=CC(=O)C=C[C@]5(C)C4CC[C@@]32C)cc1 (some centres unmarked) [EM-1291] |  |  |  |  | % Inhibition Androgen Receptor (androgen receptor; E^−6): 0%; % Inhibition Androgen Receptor (androgen receptor; E^−8): 0%; % Inhibition Progesterone Receptor (progesterone receptor; E^−6): 33%; % Inhibition Progesterone Receptor (progesterone receptor; E^−8): 0%
7 | C[C@]12CCC(=O)C=C1C=C[C@@H]1[C@@H]2CC[C@]2(C)C(=O)C3(CC4CC4C3)C[C@@H]12 (some centres unmarked) [EM-1299, 4,6-Androstadien-3,17-dione-16-spirobicyclo[3′.1′.0′]-hexane] |  |  |  |  | % Inhibition Androgen Receptor E^−6 (androgen receptor; E^−6): 3%; % Inhibition Androgen Receptor E^−8 (androgen receptor; E^−8): 1%; % Inhibition Progesterone Receptor E^−6 (progesterone receptor; E^−6): 0%; % Inhibition Progesterone Receptor E^−8 (progesterone receptor; E^−8): 0%
8 | CCS(=O)(=O)Oc1ccc2c(c1)CCC1C2CCC2(C)C1CCC21CCC(C)(C)C(=O)O1 (centres unmarked) [EM-1364-CS] | 0 | 0 | 0 | 0 | 
9 | CC1(C)CCC2(CCC3C4CCc5cc(OS(C)(=O)=O)ccc5C4CCC32C)OC1=O (centres unmarked) [EM-1365-CS] | 0 | 0 | 2 | 2 | 
10 | COCCOc1ccc2c(c1)CCC1C2CCC2(C)C1CCC21CCC(C)(C)C(=O)O1 [EM-1368-CS, 3-Methoxyethoxy-1,3,5(10)-estratrien-17(R)-spiro-2′-(5′,5′-dimethyl-6′-oxo)-tetrahydropyran] | 0 | 0 | 3 | 0 | 
11 | CCOc1ccc2c(c1)CCC1C2CC[C@@]2(C)C1CC[C@@]21CCC(C)(C)C(=O)O1 (stereo partly drawn) [EM-1369, 3-Ethoxy-1,3,5(10)-estratrien-17(R)-spiro-2′-(5′,5′-dimethyl-6′-oxo)-tetrahydropyran] | 1 | 0 | 3 | 1 | 
12 | COc1ccc2c(c1)CCC1C2CCC2(C)C1CCC21CCC(C)(C)C(=O)O1 (centres unmarked) [EM-1370] | 2 | 3 | 0 | 0 | 
13 | COCCOc1cc2c(cc1Cl)C1CCC3(C)C(CCC34CCC(C)(C)C(=O)O4)C1CC2 (centres unmarked) [EM-1371-CS] | 1 | 0 | 3 | 0 | 
14 | CC1(C)CC[C@@]2(CC[C@H]3[C@@H]4CCc5c(cc(Br)c(O)c5Br)[C@H]4CC[C@@]32C)OC1=O [EM-1382-CS] |  |  | 0 | 2 | % Inhibition Androgen Receptor E^−6 (androgen receptor; Table 4′, E^−6): 0%; % Inhibition Androgen Receptor E^−8 (androgen receptor; Table 4′, E^−8): 0%
